# Measured values taken from patent publication US20080045507A1, “SUBSTITUTED BENZAMIDE MODULATORS OF THE HISTAMINE H3 RECEPTOR” (priority 2006, published 2008).
# pKi: −log10 of the molar value.
# Columns and labels:
# [1] = biological target: T1, human H3 receptor (Homo sapiens, UniProt Q9Y5N1); test: H3 receptor binding, cloned human H3 receptor stably expressed in SK-N-MC cells; conditions: average of results
# T1 construct: expressed in transfected cells
# Method: (§1) Binding of compounds to the cloned human and rat H3 receptors, stably expressed in SK-N-MC cells, was performed as described by Barbier, A. J. et al. (Br. J. Pharmacol. 2004, 143(5), 649-661). Data for compounds tested in these assays are presented in Table 1 (human) and Table 2 (rat), as an average of the results obtained.
# [2] = biological target: T2, rat H3 receptor (Rattus norvegicus, UniProt Q9QYN8); test: H3 receptor binding, cloned rat H3 receptor stably expressed in SK-N-MC cells; conditions: average of results
# T2 construct: expressed in transfected cells
# Method: as §1
# [3] = biological target: T1, human H3 receptor; test: Cyclic AMP accumulation, SK-N-MC subline with reporter construct and human H3 receptor; type: cell-based; conditions: cAMP accumulation, SK-N-MC reporter cells expressing human H3; average of results; read-out: Human pA2 (converted)
# Source text: (§2) Sublines of SK-N-MC cells were created that expressed a reporter construct and either the human or rat H3 receptor. The pA2 values were obtained as described by Barbier et al. (2004). Data for compounds tested in these assays are presented in Table 3, as an average of the results obtained (NT=not tested).
# [4] = biological target: T2, rat H3 receptor; test: Cyclic AMP accumulation, SK-N-MC subline with reporter construct and rat H3 receptor; type: cell-based; conditions: cAMP accumulation, SK-N-MC reporter cells expressing rat H3; average of results; read-out: Rat pA2 (converted)
# Source text: as §2
# T1 sequence (Q9Y5N1 whole entry): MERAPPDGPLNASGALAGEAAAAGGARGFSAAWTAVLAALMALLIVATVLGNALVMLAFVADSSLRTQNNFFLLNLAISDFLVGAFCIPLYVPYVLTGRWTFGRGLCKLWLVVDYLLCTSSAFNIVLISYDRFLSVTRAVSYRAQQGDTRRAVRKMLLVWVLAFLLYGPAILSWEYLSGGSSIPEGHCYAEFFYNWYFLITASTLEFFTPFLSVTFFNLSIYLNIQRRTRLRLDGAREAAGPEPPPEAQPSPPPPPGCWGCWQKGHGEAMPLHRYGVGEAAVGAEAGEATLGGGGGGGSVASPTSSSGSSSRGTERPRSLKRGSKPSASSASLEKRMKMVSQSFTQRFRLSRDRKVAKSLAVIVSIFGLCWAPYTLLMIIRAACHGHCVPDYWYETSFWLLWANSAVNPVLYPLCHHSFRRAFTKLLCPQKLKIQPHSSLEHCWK
# T2 sequence (Q9QYN8 whole entry): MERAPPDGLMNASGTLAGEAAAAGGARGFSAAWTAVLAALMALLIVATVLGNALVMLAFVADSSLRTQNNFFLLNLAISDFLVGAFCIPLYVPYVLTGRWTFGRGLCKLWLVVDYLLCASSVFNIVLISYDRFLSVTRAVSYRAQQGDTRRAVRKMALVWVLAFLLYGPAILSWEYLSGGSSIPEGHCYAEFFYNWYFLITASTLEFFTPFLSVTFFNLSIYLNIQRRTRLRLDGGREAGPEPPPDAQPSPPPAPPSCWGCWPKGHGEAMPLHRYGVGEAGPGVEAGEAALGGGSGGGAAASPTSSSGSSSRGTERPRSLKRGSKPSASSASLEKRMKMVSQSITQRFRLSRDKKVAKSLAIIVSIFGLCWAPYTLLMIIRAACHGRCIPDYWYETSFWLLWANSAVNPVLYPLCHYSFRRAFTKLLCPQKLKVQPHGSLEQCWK
pKi [1],pKi [2],Kb [3] [nM],Kb [4] [nM],Structure (SMILES)
8.70,7.12,0.871,17.4,"CC(C)N1CCCN(C(=O)c2ccc(C(O)C3CCCCC3)cc2)CC1 (stereo not drawn) [Example 7, [4-(Cyclohexyl-hydroxy-methyl)-phenyl]-(4-isopropyl-[1,4]diazepan-1-yl)-methanone]"
8.70,7.55,0.417,1.51,"O=C(c1ccc(C(O)c2ccccc2)cc1)N1CCCN(C2CC2)CC1 (stereo not drawn) [Example 30, (4-Cyclopropyl-[1,4]diazepan-1-yl)-[4-(hydroxy-phenyl-methyl)-phenyl]-methanone]"
8.30,6.82,3.63,13.5,"CC(C)(C)c1ccc(C(=O)N2CCN(C3CCC3)CC2)cc1 [Example 33, (4-tert-Butyl-phenyl)-(4-cyclobutyl-piperazin-1-yl)-methanone]"
